For eleven compounds, melting point results are on record in patent US20050209216A1, “Phenyl-and pyridyl-diazaheterocycles having a tnf-modulating activity” (priority 2002, published 2005).

Counter-ions that a name gives are not always drawn.

The compound `FC(F)(F)c1cccc(N2CCCN(CCc3ccc4ccncc4c3)CC2)c1` (as salt: oxalate) [Example 4] returned a melting point of 135 to 137 °C.
In the case of `FC(F)(F)c1cccnc1N1CCN(CCc2ccc3cccnc3c2)CC1` (as salt: hydrochloride) [Example 13] it was 163 to 164 °C; in that of `FC(F)(F)c1cccc(N2C3CCC2CN(CCc2ccc4ccncc4c2)C3)n1` (as salt: hydrochloride) (hydrate or solvate), 158 to 160 °C; in that of `FC(F)(F)c1cccc(N2C3CCC2CN(CCc2ccc4ccncc4c2)C3)c1` (as salt: hydrochloride) (hydrate or solvate), 151 to 153 °C.
For `FC(F)(F)c1cccc(N2CC3CCC(C2)N3CCc2ccc3ccncc3c2)c1` (as salt: oxalate) the value was 97 to 99 °C.
For `Clc1cccc(N2CCN(CCc3ccc4ccncc4c3)CC2)n1` (as salt: hydrochloride) (hydrate or solvate) [Example 3] the value was 108 to 110 °C; for `FC(F)(F)c1cccc(N2CCN(CCc3ccc4cccnc4c3)CC2)n1` (as salt: hydrochloride) [Example 11], 228 to 230 °C.
`FC(F)(F)c1ccc(N2CCN(CCc3ccc4cccnc4c3)CC2)nc1` (as salt: hydrochloride) [Example 12] returned a melting point of 108 to 110 °C.
In the case of `Clc1cccc(N2CC3CCC(C2)N3CCc2ccc3ccncc3c2)n1` it was 141 to 142 °C.
For `FC(F)(F)c1cccc(N2CC3CCC(C2)N3CCc2ccc3ccncc3c2)n1` (as salt: hydrochloride) (hydrate or solvate) the value was 258 to 260 °C; for `Clc1cccc(N2CCN(CCc3ccc4cccnc4c3)CC2)n1` (as salt: oxalate) [Example 10], 170 to 172 °C.
